Reference: publication PMC12951562, “SH2scan: Mapping SH2 Domain-Ligand Binding Selectivity for Inhibitors and Degraders” (Journal of Medicinal Chemistry, 2026)
Read-outs that look alike come from different tables or passages of the source.

Key:
Assay in all cases: biochemical
Format in all cases: binding
[1] = biological target: T1, APS (SH2B2) (Homo sapiens, UniProt O14492); details: read-out: percent of DMSO vehicle control; for remaining activity at 10 µM: primary screen
T1 construct: the DNA-tagged SH2 domain concentrations used in this study were <0.1 nM; made in house; host or cells: HEK293 (transient transfection; unpurified extract)
T1 sequence (O14492 417-515 limits assumed): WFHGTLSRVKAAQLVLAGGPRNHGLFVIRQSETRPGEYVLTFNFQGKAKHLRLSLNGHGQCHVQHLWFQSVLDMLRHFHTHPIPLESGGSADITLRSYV

[2] = biological target: T2, PLCG2(SH2dom.N-term.) (Homo sapiens, UniProt P16885); details: for remaining activity at 10 µM: read-out: percent of DMSO vehicle control
T2 construct: SH2dom.N-term. denotes SH2 domain closest to N-terminus of protein; made in house; host or cells: HEK293 (transient transfection, unpurified extract)
T2 sequence (P16885 532-635 limits assumed): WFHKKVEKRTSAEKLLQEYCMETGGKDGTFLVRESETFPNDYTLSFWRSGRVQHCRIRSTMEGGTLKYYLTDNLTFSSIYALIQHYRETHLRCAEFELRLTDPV

[3] = biological target: T3, SH2D6 (Homo sapiens, UniProt Q7Z4S9); details: read-out: percent of DMSO vehicle control
T3 construct: made in house; host or cells: HEK293 (transient transfection), unpurified extract
T3 sequence (Q7Z4S9 whole entry): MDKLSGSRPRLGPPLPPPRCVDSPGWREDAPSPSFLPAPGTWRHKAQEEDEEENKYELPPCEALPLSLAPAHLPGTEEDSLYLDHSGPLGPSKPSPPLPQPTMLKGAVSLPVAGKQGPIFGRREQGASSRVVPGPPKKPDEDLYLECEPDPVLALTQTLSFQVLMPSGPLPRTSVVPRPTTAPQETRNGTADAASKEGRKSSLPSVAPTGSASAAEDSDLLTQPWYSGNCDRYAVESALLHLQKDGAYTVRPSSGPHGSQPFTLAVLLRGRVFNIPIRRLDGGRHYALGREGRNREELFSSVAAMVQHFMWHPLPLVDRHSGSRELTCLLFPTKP

[4] = biological target: T4, ABL2 (Homo sapiens, UniProt P42684); details: read-out: percent of DMSO vehicle control; for remaining activity at 10 µM: primary screen
T4 construct: the DNA-tagged SH2 domain concentrations used in this study were <0.1 nM; made in house; host or cells: HEK293 (transient transfection; unpurified extract)
T4 sequence (P42684 173-263 limits assumed): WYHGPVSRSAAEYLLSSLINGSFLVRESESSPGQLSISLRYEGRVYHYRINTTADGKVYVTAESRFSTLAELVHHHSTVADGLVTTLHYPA

[5] = biological target: T5, STAT6 (Homo sapiens, UniProt P42226); details: for percent of DMSO vehicle control at 10 µM / remaining activity at 10 µM: read-out: percent of DMSO vehicle control; for remaining activity at 10 µM: primary screen
T5 construct: made in house; host or cells: HEK293 (transient transfection), unpurified extract
T5 sequence (P42226 1-847): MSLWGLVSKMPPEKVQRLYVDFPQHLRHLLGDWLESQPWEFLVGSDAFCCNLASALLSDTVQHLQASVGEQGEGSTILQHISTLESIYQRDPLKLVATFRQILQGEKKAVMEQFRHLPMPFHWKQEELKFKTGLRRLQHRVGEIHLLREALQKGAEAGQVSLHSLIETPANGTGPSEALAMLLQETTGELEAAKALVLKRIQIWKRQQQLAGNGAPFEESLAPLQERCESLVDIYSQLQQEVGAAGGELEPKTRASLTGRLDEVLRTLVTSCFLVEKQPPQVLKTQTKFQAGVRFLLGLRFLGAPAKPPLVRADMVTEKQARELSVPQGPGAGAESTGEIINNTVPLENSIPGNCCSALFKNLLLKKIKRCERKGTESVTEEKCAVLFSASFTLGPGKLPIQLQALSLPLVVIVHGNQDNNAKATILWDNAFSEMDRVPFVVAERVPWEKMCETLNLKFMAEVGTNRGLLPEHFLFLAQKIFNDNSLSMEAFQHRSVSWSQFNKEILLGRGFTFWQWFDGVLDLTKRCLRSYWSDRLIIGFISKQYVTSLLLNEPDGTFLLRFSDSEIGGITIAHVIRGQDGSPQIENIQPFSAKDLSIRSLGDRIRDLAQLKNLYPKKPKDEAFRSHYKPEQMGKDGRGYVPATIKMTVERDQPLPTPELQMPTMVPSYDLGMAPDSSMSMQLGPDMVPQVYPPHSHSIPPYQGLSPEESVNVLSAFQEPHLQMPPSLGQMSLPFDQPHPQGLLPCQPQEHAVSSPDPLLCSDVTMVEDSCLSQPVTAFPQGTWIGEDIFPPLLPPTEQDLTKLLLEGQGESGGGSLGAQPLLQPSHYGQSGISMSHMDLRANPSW

[6] = biological target: T6, VAV3 (Homo sapiens, UniProt Q9UKW4); details: read-out: percent of DMSO vehicle control; for remaining activity at 10 µM: primary screen
T6 construct: made in house; host or cells: HEK293 (transient transfection), unpurified extract
T6 sequence (Q9UKW4 1-847): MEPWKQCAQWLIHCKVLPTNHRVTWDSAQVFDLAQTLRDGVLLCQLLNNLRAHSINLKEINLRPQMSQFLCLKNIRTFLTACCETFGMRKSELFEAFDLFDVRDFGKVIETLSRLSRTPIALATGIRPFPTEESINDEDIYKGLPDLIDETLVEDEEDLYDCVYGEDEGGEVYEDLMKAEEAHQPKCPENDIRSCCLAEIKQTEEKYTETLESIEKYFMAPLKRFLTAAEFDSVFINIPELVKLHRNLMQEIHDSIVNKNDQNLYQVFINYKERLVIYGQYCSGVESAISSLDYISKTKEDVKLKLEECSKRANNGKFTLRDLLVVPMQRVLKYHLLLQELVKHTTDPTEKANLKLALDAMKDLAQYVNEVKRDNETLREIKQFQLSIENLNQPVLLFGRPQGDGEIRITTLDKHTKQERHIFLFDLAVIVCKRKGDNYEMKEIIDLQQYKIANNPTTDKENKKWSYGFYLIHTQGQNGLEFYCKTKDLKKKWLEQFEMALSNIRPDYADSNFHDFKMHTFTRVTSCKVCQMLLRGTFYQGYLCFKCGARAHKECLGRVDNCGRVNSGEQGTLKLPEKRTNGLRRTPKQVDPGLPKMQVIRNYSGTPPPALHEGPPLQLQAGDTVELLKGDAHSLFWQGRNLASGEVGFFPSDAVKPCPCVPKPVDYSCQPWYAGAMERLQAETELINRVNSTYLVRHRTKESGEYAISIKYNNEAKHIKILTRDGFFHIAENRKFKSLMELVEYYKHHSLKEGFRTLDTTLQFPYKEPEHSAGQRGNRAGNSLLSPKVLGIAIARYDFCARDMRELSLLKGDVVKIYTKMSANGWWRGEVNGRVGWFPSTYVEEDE

[7] = biological target: T7, STAP2 (Homo sapiens, UniProt Q9UGK3); details: for percent of DMSO vehicle control at 10 µM / remaining activity at 10 µM: read-out: percent of DMSO vehicle control; for remaining activity at 10 µM: primary screen
T7 construct: made in house; host or cells: HEK293 (transient transfection), unpurified extract
T7 sequence (Q9UGK3 1-403): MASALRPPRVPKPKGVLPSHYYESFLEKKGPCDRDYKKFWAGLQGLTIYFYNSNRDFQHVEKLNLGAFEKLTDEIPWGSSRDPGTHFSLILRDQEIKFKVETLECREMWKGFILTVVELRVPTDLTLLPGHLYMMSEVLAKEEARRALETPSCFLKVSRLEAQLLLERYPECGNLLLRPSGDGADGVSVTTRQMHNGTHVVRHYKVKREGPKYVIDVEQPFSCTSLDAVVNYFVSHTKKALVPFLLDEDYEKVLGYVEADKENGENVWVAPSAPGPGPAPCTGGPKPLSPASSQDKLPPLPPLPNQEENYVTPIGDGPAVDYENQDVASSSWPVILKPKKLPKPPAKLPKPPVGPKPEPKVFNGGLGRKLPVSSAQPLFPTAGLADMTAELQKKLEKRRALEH

[8] = biological target: T8, BLK (Homo sapiens, UniProt P51451); details: read-out: percent of DMSO vehicle control
T8 construct: the DNA-tagged SH2 domain concentrations used in this study were <0.1 nM; made in house; host or cells: HEK293 (transient transfection; unpurified extract)
T8 sequence (P51451 124-220 limits assumed): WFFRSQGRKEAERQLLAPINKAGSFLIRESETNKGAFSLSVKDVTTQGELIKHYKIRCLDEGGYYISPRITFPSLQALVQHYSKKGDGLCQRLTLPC

Compound	percent of DMSO vehicle control at 10 µM [1] [%]	remaining activity at 10 µM [2] [%]	remaining activity at 10 µM [3] [%]	percent of DMSO vehicle control at 10 µM [4] [%]	percent of DMSO vehicle control at 10 µM [5] [%]	percent of DMSO vehicle control at 10 µM [6] [%]	percent of DMSO vehicle control at 10 µM [7] [%]	remaining activity at 10 µM [8] [%]	remaining activity at 10 µM [1] [%]	remaining activity at 10 µM ([2]; primary screen, 10 μM) [%]	remaining activity at 10 µM ([3]; primary screen, 10 μM) [%]	remaining activity at 10 µM [4] [%]	Kd ([5]; dose-response, read-out: KD) [µM]	remaining activity at 10 µM [5] [%]	remaining activity at 10 µM [6] [%]	remaining activity at 10 µM [7] [%]	remaining activity at 10 µM ([8]; primary screen, 10 μM) [%]	further results
NC(=O)CC[C@H](NC(=O)[C@@H]1CC[C@@H]2CCN(C(=O)CCCCCC#Cc3cccc4c3CN(C3CCC(=O)NC3=O)C4=O)C[C@H](NC(=O)c3cc4cc(C(F)(F)P(=O)(O)O)ccc4[nH]3)C(=O)N21)C(=O)NC(c1ccccc1)c1ccccc1 (some centres unmarked) [SD-36]	140 ± 6.1	73.8 ± 3.7	99.6 ± 3.4	126	4.2 ± 0.1	82.1 ± 3.8	36.1 ± 5.4	70.6 ± 5.9										Kd ([5]; dose-response): 1.07 ± 0.74 µM
CC(=O)N1CC[C@H]2CC[C@@H](C(=O)N[C@@H](CCC(N)=O)C(=O)NC(c3ccccc3)c3ccccc3)N2C(=O)[C@@H](NC(=O)c2cc3cc(C(F)(F)P(=O)(O)O)ccc3[nH]2)C1 [SI-109]	130	112	96.9 ± 1.7	122	44.5 ± 2.9	130	130	105										Kd [5]: 1.4 ± 0.00015 µM
C/C(=C\C(=O)N[C@H](C(=O)N1CCC[C@H]1C(=O)N(c1ccccc1)c1ccc(I)cc1)C(C)(C)C)c1ccc(OP(=O)(O)O)cc1 [STAT6-IN-1]									45.3 ± 5.2	20.7 ± 29.3	67.5 ± 5.3	98.1 ± 4.2	0.00068	0	40.3 ± 1.3	58.4 ± 51.4	49.1 ± 3.4	Kd ([2]; dose-response, read-out: KD): 0.55 ± 0.014 µM; Kd ([7]; dose-response, read-out: KD): 16.3 µM
CC(C)(C)[C@H](NC(=O)/C=C/c1ccc(OP(=O)(O)O)cc1)C(=O)N1CCC[C@H]1C(=O)N(c1ccccc1)c1ccc(I)cc1 [STAT6-IN-3]									66.4 ± 17.9	51.6 ± 17.6	97.5 ± 15.9	108 ± 3.5	0.0086	0	76.8 ± 21.6	56.9 ± 15.1	67.6 ± 11	
O=C(COc1ccc2cc(C(=O)Nc3ccccc3)ccc2c1)NCc1ccc(OP(=O)(O)O)c(OP(=O)(O)O)c1 [Stafib-1]									64.6 ± 31.3	72.6 ± 27.2	88.5 ± 5.5	106	7.3 ± 2.3	18.2	102	78.7 ± 36.1	91.8 ± 35.5	
